In BindingDB's records for doi:10.1002/ps.3406 (2013):
pIC50: −log10 of the molar value.

Biological target: Ryanodine receptor (Myzus persicae)
Test: Binding affinity to Myzus persicae (green peach aphid) ryanodine receptor by radioligand binding assay

`CNC(=O)c1cc(Cl)cc(C)c1NC(=O)c1cc(Br)nn1-c1ncccc1Cl` [3-bromo-N-(4-chloro-2-methyl-6-(methylcarbamoyl)phenyl)-1-(3-chloropyridin-2-yl)-1H-pyrazole-5-carboxamide] was tested. Which pIC50 did it give?
Its pIC50 is 8.70.
